In US5462935A, “Cephalosporin compounds” (Lucky Limited, priority 1990, dated 1995):
Values after ≈ are worked out from the molar mass of the structure shown.

Key:
ATCC 12228 = assay: minimal inhibitory concentration, two-fold agar dilution; format: cell-based; conditions: Staphylococcus faecalis, ATCC12228, 20 h
Description: (§1) These NIC values were taken by employing a two-fold dilution method: that is, two-fold serial dilutions of each of the test compounds were made and dispersed in a Muller-Hinton agar medium; 2 μl of the standard test strain which had the 10^7 CFU (Colony Forming Unit) per ml was inoculated on the medium; and these were incubated at 37° C. for 20 hours.

[1] = tested on: Acinetobacter calcoaceticus ATCC 15473; assay: as above; format: cell-based; conditions: ATCC15473, Muller-Hinton agar, 37° C., 20 hours
Description: as §1

[2] = tested on: Bacillus cereus ATCC 11778; assay: as above; format: cell-based; conditions: Bacillus cereus, ATCC11778, 20 h
Description: as §1

[3] = tested on: Bacillus megaterium ATCC 9885; assay: as above; format: cell-based; conditions: Priestia megaterium, ATCC9885, 20 h
Description: as §1

[4] = tested on: Citrobacter freundii ATCC 8090; assay: as above; format: cell-based; conditions: ATCC8090, Muller-Hinton agar, 37° C., 20 hours
Description: as §1

[5] = tested on: Enterobacter aerogenes ATCC 29751; assay: as above; format: cell-based; conditions: Klebsiella aerogenes, ATCC29751, 20 h
Description: as §1

[6] = tested on: Enterobacter cloacae ATCC 27508; assay: as above; format: cell-based; conditions: ATCC27508, Muller-Hinton agar, 37° C., 20 hours
Description: as §1

[7] = tested on: Escherichia coli ATCC 10536; assay: as above; format: cell-based; conditions: ATCC10536, Muller-Hinton agar, 37° C., 20 hours
Description: as §1

[8] = tested on: Escherichia coli ATCC 25922; assay: as above; format: cell-based; conditions: ATCC25922, Muller-Hinton agar, 37° C., 20 hours
Description: as §1

[9] = tested on: Klebsiella pneumoniae ATCC 10031; assay: as above; format: cell-based; conditions: ATCC10031, Muller-Hinton agar, 37° C., 20 hours
Description: as §1

[10] = tested on: Micrococcus luteus ATCC 9341; assay: as above; format: cell-based; conditions: ATCC9341, Muller-Hinton agar, 37° C., 20 hours
Description: as §1

[11] = tested on: Morganella morganii ATCC 8076h; assay: as above; format: cell-based; conditions: ATCC8076H, 20 h
Description: as §1

[12] = tested on: Proteus mirabilis ATCC 25933; assay: as above; format: cell-based; conditions: ATCC25933, Muller-Hinton agar, 37° C., 20 hours
Description: as §1

[13] = tested on: Proteus vulgaris ATCC 6059; assay: as above; format: cell-based; conditions: ATCC6059, Muller-Hinton agar, 37° C., 20 hours
Description: as §1

[14] = tested on: Providencia rettgeri ATCC 9250; assay: as above; format: cell-based; conditions: ATCC9250, Muller-Hinton agar, 37° C., 20 hours
Description: as §1

[15] = tested on: Pseudomonas aeruginosa ATCC 25619; assay: as above; format: cell-based; conditions: ATCC25619, Muller-Hinton agar, 37° C., 20 hours
Description: as §1

[16] = tested on: Pseudomonas aerugionsa ATCC 10145; assay: as above; format: cell-based; conditions: ATCC10145, Muller-Hinton agar, 37° C., 20 hours
Description: as §1

[17] = tested on: Pseudomonas aerugionsa ATCC 27853; assay: as above; format: cell-based; conditions: ATCC27853, Muller-Hinton agar, 37° C., 20 hours
Description: as §1

[18] = tested on: Salmonella typhimurium ATCC 14028; assay: as above; format: cell-based; conditions: Salmonella enterica, Muller-Hinton agar, 37° C., 20 hours
Description: as §1

[19] = tested on: Serratia marcescens ATCC 27117; assay: as above; format: cell-based; conditions: ATCC27117, Muller-Hinton agar, 37° C., 20 hours
Description: as §1

[20] = tested on: Shigella flexneri ATCC 11836; assay: as above; format: cell-based; conditions: ATCC11836, Muller-Hinton agar, 37° C., 20 hours
Description: as §1

[21] = tested on: Shigella sonnei ATCC 11060; assay: as above; format: cell-based; conditions: ATCC11060, Muller-Hinton agar, 37° C., 20 hours
Description: as §1

[22] = tested on: Staphylococcus aureus ATCC 6638p; assay: as above; format: cell-based; conditions: ATCC6638P, 20 h
Description: as §1

[23] = tested on: Staphylococcus epidermidis ATCC 10537; assay: as above; format: cell-based; conditions: ATCC10537, Muller-Hinton agar, 37° C., 20 hours
Description: as §1

[24] = tested on: Streptococcus faecalis ATCC 29212; assay: as above; format: cell-based; conditions: Enterococcus faecalis, ATCC29212, Muller-Hinton agar, 37° C., 20 hours
Description: as §1

[25] = acute toxicity test, intravenous; conditions: mouse, in vivo, ICR mice, observed for 14 days
Text: The results are shown in the last row of Table 2.

SMILES | MIC (ATCC 12228) [µg/mL] | MIC [1] [µg/mL] | MIC [2] [µg/mL] | MIC [3] [µg/mL] | MIC [4] [µg/mL] | MIC [5] [µg/mL] | MIC [6] [µg/mL] | MIC [7] [µg/mL] | MIC [8] [µg/mL] | MIC [9] [µg/mL] | MIC [10] [µg/mL] | MIC [11] [µg/mL] | MIC [12] [µg/mL] | MIC [13] [µg/mL] | MIC [14] [µg/mL] | MIC [15] [µg/mL] | MIC [16] [µg/mL] | MIC [17] [µg/mL] | MIC [18] [µg/mL] | MIC [19] [µg/mL] | further results
Cc1c(N)nc(SCC2=C(C(=O)[O-])N3C(=O)C(NC(=O)/C(=N\O[C@@H](C)C(=O)O)c4csc(N)n4)C3SC2)[n+](C)c1N (stereo partly drawn) [I-S-6, 7-[(Z)-2-(2-aminothiazol-4-yl)-2-[(S)-1-carboxyeth-1-oxyimino]acetamido]-3-[(4,6-diamino-1,5-dimethylpyrimidinium-2-yl)thiomethyl]-3-cephem-4-carboxylate] | 1 (≈ 1.6 µM) | 4 (≈ 6.41 µM) | 64 (≈ 103 µM) | 0.25 (≈ 0.401 µM) | 0.016 (≈ 0.0257 µM) | 0.5 (≈ 0.802 µM) | ≤ 0.008 | 0.031 (≈ 0.0497 µM) | 0.031 (≈ 0.0497 µM) | 0.031 (≈ 0.0497 µM) | 0.25 (≈ 0.401 µM) | ≤ 0.008 | 0.031 (≈ 0.0497 µM) | 0.031 (≈ 0.0497 µM) | ≤ 0.008 | 1 (≈ 1.6 µM) | 2 (≈ 3.21 µM) | 1 (≈ 1.6 µM) | 0.13 (≈ 0.208 µM) | 0.13 (≈ 0.208 µM) | MIC [20]: 0.016 µg/mL (≈ 0.0257 µM); MIC [21]: 0.031 µg/mL (≈ 0.0497 µM); MIC [22]: 4 µg/mL (≈ 6.41 µM); MIC [23]: 2 µg/mL (≈ 3.21 µM); MIC [24]: > 128 µg/mL; LD50 at 336 h [25]: > 3000 mg/kg
CCC[n+]1c(N)cc(N)nc1SCC1=C(C(=O)[O-])N2C(=O)C(NC(=O)/C(=N\O[C@H](C)C(=O)O)c3csc(N)n3)[C@H]2SC1 (stereo partly drawn) [I-R-4, 7-[(Z)-2-(2-aminothiazol-4-yl)-2-[(R)-1-carboxyeth-1-oxyimino]acetamido]-3-[(4,6-diamino-1-propylpyrimidinium-2-yl)thiomethyl]-3-cephem-4-carboxylate] | 1 (≈ 1.57 µM) | 8 (≈ 12.5 µM) | 64 (≈ 100 µM) | 0.5 (≈ 0.784 µM) | 0.063 (≈ 0.0988 µM) | 1 (≈ 1.57 µM) | 0.016 (≈ 0.0251 µM) | 0.063 (≈ 0.0988 µM) | 0.063 (≈ 0.0988 µM) | 0.063 (≈ 0.0988 µM) | 0.5 (≈ 0.784 µM) | ≤ 0.008 | 0.063 (≈ 0.0988 µM) | 0.063 (≈ 0.0988 µM) | ≤ 0.008 | 1 (≈ 1.57 µM) | 4 (≈ 6.27 µM) | 2 (≈ 3.14 µM) | 0.25 (≈ 0.392 µM) | 0.13 (≈ 0.204 µM) | MIC [20]: 0.031 µg/mL (≈ 0.0486 µM); MIC [21]: 0.063 µg/mL (≈ 0.0988 µM); MIC [22]: 2 µg/mL (≈ 3.14 µM); MIC [23]: 2 µg/mL (≈ 3.14 µM); MIC [24]: > 128 µg/mL; LD50 at 336 h [25]: > 3000 mg/kg
C[C@@H](O/N=C(\C(=O)NC1C(=O)N2C(C(=O)[O-])=C(CSc3nc(N)cc(N)[n+]3-c3ccccc3)CSC12)c1csc(N)n1)C(=O)O (stereo partly drawn) [I-R-5, 7-[(Z)-2-(2-aminothiazol-4-yl)-2-[(R)-1-carboxyeth-1-oxyimino]acetamido]-3-[(4,6-diamino-1'-phenylpyrimidinium-2-yl)thiomethyl]-3-cephem-4-carboxylate] | 2 (≈ 2.98 µM) | 16 (≈ 23.8 µM) | 64 (≈ 95.3 µM) | 0.5 (≈ 0.744 µM) | 0.13 (≈ 0.194 µM) | 1 (≈ 1.49 µM) | 0.031 (≈ 0.0461 µM) | 0.13 (≈ 0.194 µM) | 0.25 (≈ 0.372 µM) | 0.063 (≈ 0.0938 µM) | 0.25 (≈ 0.372 µM) | ≤ 0.008 | 0.063 (≈ 0.0938 µM) | 0.063 (≈ 0.0938 µM) | ≤ 0.008 | 2 (≈ 2.98 µM) | 8 (≈ 11.9 µM) | 4 (≈ 5.95 µM) | 0.5 (≈ 0.744 µM) | 0.5 (≈ 0.744 µM) | MIC [20]: 0.063 µg/mL (≈ 0.0938 µM); MIC [21]: 0.25 µg/mL (≈ 0.372 µM); MIC [22]: 4 µg/mL (≈ 5.95 µM); MIC [23]: 2 µg/mL (≈ 2.98 µM); MIC [24]: > 128 µg/mL; LD50 at 336 h [25]: > 2000 mg/kg
Cc1c(N)nc(SCC2=C(C(=O)[O-])N3C(=O)C(NC(=O)/C(=N\O[C@H](C)C(=O)O)c4csc(N)n4)[C@H]3SC2)[n+](N)c1N (stereo partly drawn) [I-R-7, 7-[(Z)-2-(2-aminothiazol-4-yl)-2-[(R)-1-carboxyeth-1-oxyimino]acetamido]-3-[(5-methyl-1,4,6-triaminopyrimidinium-2-yl)thiomethyl]-3-cephem-4-carboxylate] | 2 (≈ 3.2 µM) | 4 (≈ 6.4 µM) | 128 (≈ 205 µM) | 0.5 (≈ 0.8 µM) | 0.13 (≈ 0.208 µM) | 2 (≈ 3.2 µM) | 0.063 (≈ 0.101 µM) | 0.063 (≈ 0.101 µM) | 0.063 (≈ 0.101 µM) | 0.063 (≈ 0.101 µM) | 0.5 (≈ 0.8 µM) | ≤ 0.008 | 0.031 (≈ 0.0496 µM) | 0.063 (≈ 0.101 µM) | ≤ 0.008 | 2 (≈ 3.2 µM) | 2 (≈ 3.2 µM) | 2 (≈ 3.2 µM) | 0.25 (≈ 0.4 µM) | 0.13 (≈ 0.208 µM) | MIC [20]: 0.031 µg/mL (≈ 0.0496 µM); MIC [21]: 0.063 µg/mL (≈ 0.101 µM); MIC [22]: 4 µg/mL (≈ 6.4 µM); MIC [23]: 2 µg/mL (≈ 3.2 µM); MIC [24]: > 128 µg/mL; LD50 at 336 h [25]: > 5000 mg/kg
